pKd: −log10 of the molar value. Residues, ends and D or L forms follow the SMILES beside them.
Assays:
[1] = biological target: T1, PLCG1-C SH2 domain (Homo sapiens, UniProt P19174); assay: biochemical; type: binding; conditions: high-confidence ErbB interactions
T1 construct: The 6X His-tagged SH2 domain proteins used in the assay, PLCG1-C, SHC4, VAV2; thioredoxin; made in house; host or cells: E. coli BL21(DE3)pLysS
T1 sequence (P19174 668-756 limits assumed): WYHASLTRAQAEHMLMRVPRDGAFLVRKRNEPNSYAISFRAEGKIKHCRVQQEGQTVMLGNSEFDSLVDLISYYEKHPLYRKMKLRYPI

[2] = biological target: T2, RASA1-N SH2 domain (Homo sapiens, UniProt P20936); assay: FP saturation binding assay
T2 sequence (P20936 181-272 limits assumed): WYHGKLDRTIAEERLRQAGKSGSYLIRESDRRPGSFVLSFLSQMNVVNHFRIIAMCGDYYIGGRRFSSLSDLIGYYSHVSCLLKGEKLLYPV

[3] = biological target: T3, PLCG1-NC tandem SH2 domains (Homo sapiens, UniProt P19174); assay: FP saturation binding assay; conditions: protein PLCG1-NC; FP, high-confidence ErbB interactions; mean of replicate hits
T3 construct: the tandem protein was included in our analysis with all internal amino acids linking the domains; 6X His; thioredoxin; made in house; host or cells: E. coli BL21(DE3)pLysS
T3 sequence (P19174 550-756 limits assumed): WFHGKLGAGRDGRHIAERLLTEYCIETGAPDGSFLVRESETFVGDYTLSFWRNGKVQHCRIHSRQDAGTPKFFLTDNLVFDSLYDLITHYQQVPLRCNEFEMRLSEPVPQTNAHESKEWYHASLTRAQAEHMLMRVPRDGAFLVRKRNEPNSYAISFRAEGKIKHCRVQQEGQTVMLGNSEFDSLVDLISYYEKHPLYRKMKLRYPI
Procedure: (See Figure 1A) Rhodamine-labeled peptides were dissolved in assay buffer (20 mM HEPES, 100 mM KCl, 0.1% Tween-20, 5 mM DTT, pH 7.8), diluted to a concentration of 20 nM, and plated into black 384-well plates (Corning, Corning, NY) at 5 µL/well using a Perkin Elmer EP3 pipetting workstation (V&P Scientific, Inc., San Diego, CA). SH2, PTB, and thioredoxin control proteins were plated into the first column of 2 mL 96-well plates (Corning) at a concentration of 20 µM and serially diluted 1∶2 into freezing buffer (300 mM NaCl, 50 mM Na2PO4, pH 8, 20% glycerol v/v) eleven times using a Tecan Freedom EVO 100 workstation (Tecan, Männedorf, Switzerland). For the interaction assay, 5 µL of each of the twelve protein concentrations was added to the peptide-containing 384-well plates via the EP3 resulting in a protein dilution range of 0.002–10 µM and a final volume of 10 µL; peptide concentration was fixed at 10 nM. […] Experimental values were output as millipolarization (mP) units and imported into MATLAB (The MathWorks, Inc., Natick, MA) in which equation (1) was used to determine dissociation constants (KDs) for each protein/peptide pairing by least squares nonlinear regression. [drawing 1] (1)
FP was described by the following equation: P=Iparallel-IperpendicularIparallel+Iperpendicular, where “P” denotes polarization, and “I” denotes the fluorescent intensity relative to the plane of incident light. Experimental values were output as millipolarization (mP) units and imported into MATLAB where the following equation was used to determine dissociation constants (KDs) for each protein/peptide pairing by least squares nonlinear regression:
Pobs=Pmax∙ProteinKD+Protein [picture] (1)
Peptides were initially tested for systematic plate effects across protein dilutions and nonspecific binding to thioredoxin by linear regression analysis and any effects were regressed out. The median baseline control polarization value for each plate was then subtracted from each data point to make each binding curve intersect at zero. Plates with excessive variation in baseline control polarizations on both a global and run-specific manner (Dixon’s Q test, p < 0.05) were excluded from further analysis. Outliers in each binding curve were identified and removed using an iterative procedure as follows. The residuals for each fit were used to calculate a global standard deviation of the residuals (GSDR) for each concentration of SH2 domain over all interactions, and individual data points with residuals < or > two GSDR from the global mean residual were flagged as outliers. The outlier with the largest residual from each interaction was removed and nonlinear regression was again performed. This procedure was repeated if additional outliers were identified for an interaction, discarding the interaction if the number of outliers exceeded three. […] In order to further control our false positive rate against hidden confounding variables producing binding artifacts, we sought to determine whether there was a significant relationship between the strength of an interaction and its technical replication rate at our stringent significance and filtering thresholds. We performed logistic regression on the proportion of successful replicates for each interaction query against KD for all interactions (Figure S15A). […] “High-confidence” FP interactions are defined as those having 1 - P(Observed Replication Rate | Expectation) > 0.5 and that have replicated at least twice across independent FP runs. […] The compiled FP data were organized into heatmaps generated by MATLAB and relative binding strength (µM). Peptides without at least one positive hit were classified as “no interaction” if there was no homologous sequence (i.e. identical at the +1 to +4 positions relative to the phosphotyrosine) that produced a positive interaction within the ErbB receptor family.

## CC(C)C[C@H](NC(=O)[C@H](Cc1ccc(OP(=O)(O)O)cc1)NC(=O)[C@H](CCC(=O)O)NC(=O)[C@H](C)NC(=O)[C@H](CC(N)=O)NC(=O)[C@@H](N)CCC(=O)O)C(=O)N[C@@H](CCCNC(=N)N)C(=O)N[C@H](C(=O)N[C@@H](C)C(=O)N1CCC[C@H]1C(=O)N[C@@H](CCC(N)=O)C(=O)N[C@@H](CO)C(=O)N[C@@H](CC(=O)O)C(=O)O)C(C)C [ErbB1 1197 13-mer] (HELM PEPTIDE1{E.N.A.E.[O=C([C@H](Cc1ccc(OP(=O)(O)O)cc1)N[*:1])[*:2]].L.R.V.A.P.Q.S.D}$$$$V2.0)
[1]; Protein PLCG1-C, FP saturation binding, mean over replicate hits
  pKd: 5.25

## CC(C)C[C@H](NC(=O)[C@H](Cc1ccc(OP(=O)(O)O)cc1)NC(=O)[C@H](CCC(=O)O)NC(=O)[C@H](CCC(N)=O)NC(=O)[C@H](CCCCN)NC(=O)[C@@H]1CCCN1)C(=O)N[C@@H](CC(N)=O)C(=O)N1CCC[C@H]1C(=O)N[C@H](C(=O)N[C@@H](CCC(=O)O)C(=O)N[C@@H](CCC(=O)O)C(=O)N[C@@H](CC(N)=O)C(=O)N[C@@H](CC(=O)O)C(=O)O)C(C)C [ErbB4 1162 13-mer] (HELM PEPTIDE1{P.K.Q.E.[O=C([C@H](Cc1ccc(OP(=O)(O)O)cc1)N[*:1])[*:2]].L.N.P.V.E.E.N.D}$$$$V2.0)
[2]
  pKd: 5.54
[3]
  pKd: 5.27

## CC(C)C[C@H](NC(=O)[C@H](CO)NC(=O)[C@H](Cc1ccccc1)NC(=O)[C@H](CCC(=O)O)NC(=O)[C@H](CO)NC(=O)[C@H](CC(C)C)NC(=O)[C@H](Cc1ccc(OP(=O)(O)O)cc1)NC(=O)[C@H](CCC(=O)O)NC(=O)[C@@H]1CCCN1C(=O)[C@H](CC(N)=O)NC(=O)[C@@H](N)CCC(=O)O)C(=O)N[C@@H](CCCCN)C(=O)N[C@@H](CC(=O)O)C(=O)O [ErbB4 1284 13-mer] (HELM PEPTIDE1{E.N.P.E.[O=C([C@H](Cc1ccc(OP(=O)(O)O)cc1)N[*:1])[*:2]].L.S.E.F.S.L.K.D}$$$$V2.0)
[1]; protein PLCG1-C, mean of replicate hits
  pKd: 5.43

— paper PMC3433420 (PLoS ONE, 2012)
